According to ChEMBL document CHEMBL4251615, “Discovery of anilino-furo[2,3-d]pyrimidine derivatives as dual inhibitors of EGFR/HER2 tyrosine kinase and their anticancer activity” (Eur J Med Chem, 2018):

Key:
NCI-H522 = assay: Growth inhibition of human NCI-H522 cells assessed as cell growth at 10 uM incubated for 48 hrs by sulforhodamine B assay relative to control; type: functional; details: NCI-H522, 48 h, read-out: Activity
NCI-H226 = assay: Growth inhibition of human NCI-H226 cells assessed as cell growth at 10 uM incubated for 48 hrs by sulforhodamine B assay relative to control; type: functional; details: NCI-H226, 48 h, read-out: Activity
T47D = assay: Growth inhibition of human T47D cells assessed as cell growth at 10 uM incubated for 48 hrs by sulforhodamine B assay relative to control; type: functional; details: read-out: Activity
SK-MEL-5 = assay: Growth inhibition of human SK-MEL-5 cells assessed as cell growth at 10 uM incubated for 48 hrs by sulforhodamine B assay relative to control; type: functional; details: SK-MEL-5, 48 h, read-out: Activity
SK-MEL-2 = assay: Growth inhibition of human SK-MEL-2 cells assessed as cell growth at 10 uM incubated for 48 hrs by sulforhodamine B assay relative to control; type: functional; details: SK-MEL-2, 48 h, read-out: Activity
SN12C = assay: Growth inhibition of human SN12C cells assessed as cell growth at 10 uM incubated for 48 hrs by sulforhodamine B assay relative to control; type: functional; details: read-out: Activity
LOX IMVI = assay: Growth inhibition of human LOXIMVI cells assessed as cell growth at 10 uM incubated for 48 hrs by sulforhodamine B assay relative to control; type: functional; details: read-out: Activity
SNB-75 = assay: Growth inhibition of human SNB75 cells assessed as cell growth at 10 uM incubated for 48 hrs by sulforhodamine B assay relative to control; type: functional; details: SNB-75, 48 h, read-out: Activity
ACHN = assay: Growth inhibition of human ACHN cells assessed as cell growth at 10 uM incubated for 48 hrs by sulforhodamine B assay relative to control; type: functional; details: read-out: Activity
KM12 = assay: Growth inhibition of human KM12 cells assessed as cell growth at 10 uM incubated for 48 hrs by sulforhodamine B assay relative to control; type: functional; details: KM12, 48 h, read-out: Activity
UO-31 = assay: Growth inhibition of human UO31 cells assessed as cell growth at 10 uM incubated for 48 hrs by sulforhodamine B assay relative to control; type: functional; details: UO-31, 48 h, read-out: Activity
DU-145 = assay: Growth inhibition of human DU145 cells assessed as cell growth at 10 uM incubated for 48 hrs by sulforhodamine B assay relative to control; type: functional; details: DU-145, 48 h, read-out: Activity
NCI/ADR-RES = assay: Growth inhibition of human NCI/ADR-RES cells assessed as cell growth at 10 uM incubated for 48 hrs by sulforhodamine B assay relative to control; type: functional; details: read-out: Activity
SR = assay: Growth inhibition of human SR cells assessed as cell growth at 10 uM incubated for 48 hrs by sulforhodamine B assay relative to control; type: functional; details: read-out: Activity
HL-60(TB) = assay: Growth inhibition of human HL-60(TB) cells assessed as cell growth at 10 uM incubated for 48 hrs by sulforhodamine B assay relative to control; type: functional; details: HL-60, 48 h, read-out: Activity
SK-MEL-28 = assay: Growth inhibition of human SK-MEL-28 cells assessed as cell growth at 10 uM incubated for 48 hrs by sulforhodamine B assay relative to control; type: functional; details: SK-MEL-28, 48 h, read-out: Activity
HT-29 = assay: Growth inhibition of human HT-29 cells assessed as cell growth at 10 uM incubated for 48 hrs by sulforhodamine B assay relative to control; type: functional; details: HT-29, 48 h, read-out: Activity
HOP-92 = assay: Growth inhibition of human HOP92 cells assessed as cell growth at 10 uM incubated for 48 hrs by sulforhodamine B assay relative to control; type: functional; details: HOP-92, 48 h, read-out: Activity
SF-295 = assay: Growth inhibition of human SF295 cells assessed as cell growth at 10 uM incubated for 48 hrs by sulforhodamine B assay relative to control; type: functional; details: SF-295, 48 h, read-out: Activity
NCI-H23 = assay: Growth inhibition of human NCI-H23 cells assessed as cell growth at 10 uM incubated for 48 hrs by sulforhodamine B assay relative to control; type: functional; details: NCI-H23, 48 h, read-out: Activity
HCT-116 = assay: Growth inhibition of human HCT116 cells assessed as cell growth at 10 uM incubated for 48 hrs by sulforhodamine B assay relative to control; type: functional; details: HCT-116, 48 h, read-out: Activity
COLO 205 = assay: Growth inhibition of human COLO205 cells assessed as cell growth at 10 uM incubated for 48 hrs by sulforhodamine B assay relative to control; type: functional; details: COLO 205, 48 h, read-out: Activity
OVCAR-3 = assay: Growth inhibition of human OVCAR3 cells assessed as cell growth at 10 uM incubated for 48 hrs by sulforhodamine B assay relative to control; type: functional; details: OVCAR-3, 48 h, read-out: Activity
NCI-H460 = assay: Growth inhibition of human NCI-H460 cells assessed as cell growth at 10 uM incubated for 48 hrs by sulforhodamine B assay relative to control; type: functional; details: NCI-H460, 48 h, read-out: Activity
HOP-62 = assay: Growth inhibition of human HOP62 cells assessed as cell growth at 10 uM incubated for 48 hrs by sulforhodamine B assay relative to control; type: functional; details: HOP-62, 48 h, read-out: Activity
MDA-MB-231 = assay: Growth inhibition of human MDA-MB-231 cells assessed as cell growth at 10 uM incubated for 48 hrs by sulforhodamine B assay relative to control; type: functional; details: MDA-MB-231, 48 h, read-out: Activity
RXF 393 = assay: Growth inhibition of human RXF393 cells assessed as cell growth at 10 uM incubated for 48 hrs by sulforhodamine B assay relative to control; type: functional; details: RXF 393, 48 h, read-out: Activity
786-0 = assay: Growth inhibition of human 786-0 cells assessed as cell growth at 10 uM incubated for 48 hrs by sulforhodamine B assay relative to control; type: functional; details: 786-0, 48 h, read-out: Activity
TK-10 = assay: Growth inhibition of human TK10 cells assessed as cell growth at 10 uM incubated for 48 hrs by sulforhodamine B assay relative to control; type: functional; details: TK-10, 48 h, read-out: Activity
OVCAR-8 = assay: Growth inhibition of human OVCAR8 cells assessed as cell growth at 10 uM incubated for 48 hrs by sulforhodamine B assay relative to control; type: functional; details: OVCAR-8, 48 h, read-out: Activity
SNB-19 = assay: Growth inhibition of human SNB19 cells assessed as cell growth at 10 uM incubated for 48 hrs by sulforhodamine B assay relative to control; type: functional; details: SNB-19, 48 h, read-out: Activity
[1] = target: Epidermal growth factor receptor (Homo sapiens, UniProt P00533); assay: Inhibition of recombinant human C-terminal His/N-terminal GST-tagged EGFR (668 to 1210 residues) expressed in baculovirus infected Sf9 cells at 10 uM using biotin-labeled poly[Glu:Tyr] (4:1) as substrate after 30 mins by Kinase-Glo plus luminescence assay relative to control
Chain of Epidermal growth factor receptor (P00533 whole entry, the tested form may be a part): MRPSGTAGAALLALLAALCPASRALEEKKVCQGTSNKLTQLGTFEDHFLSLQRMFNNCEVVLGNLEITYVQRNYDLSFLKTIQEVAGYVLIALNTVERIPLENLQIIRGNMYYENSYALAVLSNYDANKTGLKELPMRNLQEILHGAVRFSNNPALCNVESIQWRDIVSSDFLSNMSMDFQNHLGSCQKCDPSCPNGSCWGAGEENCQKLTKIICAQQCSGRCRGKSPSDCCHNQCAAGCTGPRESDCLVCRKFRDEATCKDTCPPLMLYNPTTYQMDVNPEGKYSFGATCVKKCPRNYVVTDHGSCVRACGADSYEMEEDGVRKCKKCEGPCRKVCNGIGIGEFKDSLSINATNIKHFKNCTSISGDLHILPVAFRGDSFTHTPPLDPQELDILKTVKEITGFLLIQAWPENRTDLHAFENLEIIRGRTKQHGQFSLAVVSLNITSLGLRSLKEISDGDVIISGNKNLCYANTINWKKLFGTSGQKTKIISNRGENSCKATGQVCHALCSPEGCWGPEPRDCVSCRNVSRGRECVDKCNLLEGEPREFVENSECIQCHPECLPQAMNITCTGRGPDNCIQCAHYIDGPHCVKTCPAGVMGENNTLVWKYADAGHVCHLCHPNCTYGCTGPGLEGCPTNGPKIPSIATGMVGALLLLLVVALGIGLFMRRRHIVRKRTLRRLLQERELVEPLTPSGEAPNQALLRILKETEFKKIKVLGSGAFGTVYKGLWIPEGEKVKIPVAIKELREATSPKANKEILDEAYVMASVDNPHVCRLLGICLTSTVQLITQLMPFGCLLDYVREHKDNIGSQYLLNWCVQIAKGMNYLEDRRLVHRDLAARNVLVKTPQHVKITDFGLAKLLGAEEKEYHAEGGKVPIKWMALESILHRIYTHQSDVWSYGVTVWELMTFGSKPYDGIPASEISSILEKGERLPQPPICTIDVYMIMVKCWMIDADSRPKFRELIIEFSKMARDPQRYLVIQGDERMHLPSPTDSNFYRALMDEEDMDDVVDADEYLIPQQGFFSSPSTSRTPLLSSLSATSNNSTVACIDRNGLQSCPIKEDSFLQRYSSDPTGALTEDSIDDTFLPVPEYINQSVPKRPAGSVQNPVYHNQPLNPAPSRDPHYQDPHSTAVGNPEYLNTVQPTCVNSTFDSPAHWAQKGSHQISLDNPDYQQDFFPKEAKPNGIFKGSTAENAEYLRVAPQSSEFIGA

| Structure (SMILES) | growth at 10 µM (NCI-H522) | growth at 10 µM (NCI-H226) | growth at 10 µM (T47D) | growth at 10 µM (SK-MEL-5) | growth at 10 µM (SK-MEL-2) | growth at 10 µM (SN12C) | growth at 10 µM (LOX IMVI) | growth at 10 µM (SNB-75) | growth at 10 µM (ACHN) | growth at 10 µM (KM12) | growth at 10 µM (UO-31) | growth at 10 µM (DU-145) | growth at 10 µM (NCI/ADR-RES) | growth at 10 µM (SR) | growth at 10 µM (HL-60(TB)) | growth at 10 µM (SK-MEL-28) | growth at 10 µM (HT-29) | growth at 10 µM (HOP-92) | growth at 10 µM (SF-295) | growth at 10 µM (NCI-H23) | also measured |
| --- | --- | --- | --- | --- | --- | --- | --- | --- | --- | --- | --- | --- | --- | --- | --- | --- | --- | --- | --- | --- | --- |
| CCOC(=O)c1c(C)oc2ncnc(Nc3cccc(F)c3)c12 | 94.3% | 101% | 92.7% | 99% | 92.9% | 89.1% | 105% | 107% | 109% | 100% | 101% | 99% | 96.1% | 78.6% | 76.4% | 98.2% | 89.8% | 88.3% | 94.8% | 97.8% | growth at 10 µM (HCT-116): 88.1%; growth at 10 µM (COLO 205): 104%; growth at 10 µM (OVCAR-3): 108%; growth at 10 µM (NCI-H460): 101%; growth at 10 µM (HOP-62): 101%; growth at 10 µM (MDA-MB-231): 91.7%; growth at 10 µM (RXF 393): 97.6%; growth at 10 µM (786-0): 95.7%; growth at 10 µM (TK-10): 95.9%; growth at 10 µM (OVCAR-8): 105%; growth at 10 µM (SNB-19): 93.7%; inhibition [1]: 2% |
| Cc1cccc(Nc2ncnc3oc(C)c(C(=O)NCCO)c23)c1 | 91.8% | 93.3% | 84.3% | 94.6% | 113% | 97.1% | 93% | 110% | 94.8% | 93.9% | 86.2% | 103% | 92.4% | 90.8% | 84.6% | 102% | 99.8% | 94.1% | 96.3% | 92.8% | growth at 10 µM (HCT-116): 93%; growth at 10 µM (COLO 205): 99%; growth at 10 µM (OVCAR-3): 108%; growth at 10 µM (NCI-H460): 102%; growth at 10 µM (HOP-62): 98.2%; growth at 10 µM (MDA-MB-231): 84.1%; growth at 10 µM (RXF 393): 81.1%; growth at 10 µM (786-0): 99%; growth at 10 µM (TK-10): 102%; growth at 10 µM (OVCAR-8): 104%; growth at 10 µM (SNB-19): 103%; inhibition [1]: 36% |
| CCOC(=O)c1c(C)oc2ncnc(Nc3ccc(F)c(Cl)c3)c12 | 74.6% | 94.6% | 83.8% | 94.5% | 95.5% | 92.2% | 103% | 113% | 112% | 104% | 88.5% | 103% | 107% | 96.8% | 101% | 110% | 92.8% | 72.1% | 97% | 88% | growth at 10 µM (HCT-116): 103%; growth at 10 µM (COLO 205): 110%; growth at 10 µM (OVCAR-3): 116%; growth at 10 µM (NCI-H460): 106%; growth at 10 µM (HOP-62): 101%; growth at 10 µM (MDA-MB-231): 101%; growth at 10 µM (RXF 393): 101%; growth at 10 µM (786-0): 104%; growth at 10 µM (TK-10): 114%; growth at 10 µM (OVCAR-8): 100%; growth at 10 µM (SNB-19): 100%; inhibition [1]: 10% |
| Cc1oc2ncnc(Nc3ccc(OCc4cccc(F)c4)c(Cl)c3)c2c1C(=O)NCCO | 27.9% | 40.8% | 34.7% | 73.1% | 78.5% | 45.3% | 61.5% | 40.5% | 49.7% | 68.9% | 57.6% | 61.7% | 70.8% | 99.7% | 42.4% | 50.6% | 73% | 41.9% | 49.5% | 58.6% | growth at 10 µM (HCT-116): 64.9%; growth at 10 µM (COLO 205): 85.7%; growth at 10 µM (OVCAR-3): 78.1%; growth at 10 µM (NCI-H460): 34.7%; growth at 10 µM (HOP-62): 51.1%; growth at 10 µM (MDA-MB-231): 26%; growth at 10 µM (RXF 393): 60%; growth at 10 µM (786-0): 61.2%; growth at 10 µM (TK-10): 74.7%; growth at 10 µM (OVCAR-8): 42.8%; growth at 10 µM (SNB-19): 34.3%; inhibition [1]: 32% |
